{"source": "paper PMC7037393", "about": "“Synthesis, Structural, and Cytotoxic Properties of New Water-Soluble Copper(II) Complexes Based on 2,9-Dimethyl-1,10-Phenanthroline and Their One Derivative Containing 1,3,5-Triaza-7-Phosphaadamantane-7-Oxide” (Molecules, 2020)", "key": {"[1]": {"test_system": "LoVo (human colorectal adenocarcinoma)", "assay": "Cytotoxicity on LoVo cells, quantitative suspension test according to EN 14476", "type": "cell-based", "details": "observed 4 days, aqua media", "description": "(§1) Normal human dermal fibroblasts (NHDF) (PromoCell, C-12302) were used as normal cells and LoVo (human colorectal adenocarcinoma, ATCC® CCL-229™), A549 (human lung carcinoma, ATCC, No. CCL-185 TM), MCF-7 (human breast adenocarcinoma, ATCC, No. HTB-22^TM) and HeLa (human cervix carcinoma, ATCC, No. CCL-2 TM) were used as cancer cells. They were cultured in DMEM, DMEM–F12 or EMEM (Lonza, CA, USA). Media were supplemented with 10% FBS (Biological Industries, Kibbutz Beit-Haemek, Israel), 2 mM L-glutamine (Biological Industries, Israel), 100 U/mL of penicillin and 100 µg/mL of streptomycin (Sigma, Neustadt an der Weinstrasse, Germany).\n(§2) The 100 μL of suspension of NHDF, A549, HeLa, LoVo, and MCF7 cells at a density of 4 × 10^4 cells mL^−1 were incubated in a 96-well polystyrene plate (NUNC, Denmark) for 24 h. Product test solutions were prepared in DMEM, DMEM–F12, or EMEM supplemented with additional 2% FBS and 2 mM L-glutamine. Solutions of the reagents at concentrations from 460 (for 1), 454 (2), […] (3), 1242 (Cu(NO3)2), 1732 (PTA=O), and 1440 µM (dmphen) to 4.60 × 10^−6, 4.54 × 10^−6, 4.69 × 10^−6, 1.24 × 10^−5, 1.73 × 10^−5, and 1.44 × 10^−5 µM, respectively, were prepared and transferred (100 μL) into cell culture units (wells of microtiter plates) containing monolayer of cells. Eight units were inoculated with each dilution. Plates were incubated in 37 °C, 5% CO2 and observed daily for 4 days for the development of cytotoxic effect, using an inverted microscope (Olympus Corp., Hamburg, Germany, Axio Observer, Carl Zeiss MicroImaging GmbH). Then the wells were washed in phosphate buffered saline (PBS) and stained using DAPI (4′,6-diamidino-2-phenylindole) and propidium iodide (Merck, Darmstadt, Germany). The study used the fact that DAPI is able to be combined with cellular DNA, permeate through the membrane of cell, rapidly enter the nucleus of living cells and bind with DNA to form a DAPI-DNA complex. […] In cell culture these are cells that are apoptotic or damaged by any physical or chemical agent. Therefore, if these two fluorochrome are given at the same time, DAPI will get to healthy cells faster, while propidium iodide will stain dead or dying cells. The calculation of the ratio of cells counted on a specific area, allows to determine the potency of a substance in inhibiting a specific biological function (IC50)."}, "[2]": {"biological_target": "T1, human apo-transferrin (apo-Tf) (Homo sapiens, UniProt P02787)", "T1 construct": "purchased Sigma-Aldrich", "T1 sequence (P02787 20-698)": "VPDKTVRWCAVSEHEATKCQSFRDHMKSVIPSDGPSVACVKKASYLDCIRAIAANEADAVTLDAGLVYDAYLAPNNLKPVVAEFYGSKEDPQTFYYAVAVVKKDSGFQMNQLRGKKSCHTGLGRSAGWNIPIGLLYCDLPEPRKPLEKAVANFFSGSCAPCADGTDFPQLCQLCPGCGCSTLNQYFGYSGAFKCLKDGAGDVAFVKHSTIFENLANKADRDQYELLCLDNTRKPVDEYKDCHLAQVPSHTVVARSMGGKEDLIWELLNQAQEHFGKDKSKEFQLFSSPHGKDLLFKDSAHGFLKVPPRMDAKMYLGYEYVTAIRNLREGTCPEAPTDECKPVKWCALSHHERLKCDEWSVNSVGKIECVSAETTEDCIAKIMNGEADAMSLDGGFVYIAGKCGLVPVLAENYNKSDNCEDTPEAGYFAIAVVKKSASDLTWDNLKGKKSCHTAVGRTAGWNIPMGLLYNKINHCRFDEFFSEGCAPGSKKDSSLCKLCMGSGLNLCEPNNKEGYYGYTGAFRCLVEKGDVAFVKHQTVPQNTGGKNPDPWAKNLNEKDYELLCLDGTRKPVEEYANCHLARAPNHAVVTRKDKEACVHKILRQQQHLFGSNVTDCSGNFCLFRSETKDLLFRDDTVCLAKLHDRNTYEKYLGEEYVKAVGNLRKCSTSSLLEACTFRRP", "assay": "Apo-transferrin interaction by fluorescence quenching (Stern-Volmer, binding, van't Hoff)", "details": "for Kq (quenching rate constant): Kq = Ksv/τo, τo 2.5 ns; for Ka (association constant) / Ksv (Stern-Volmer quenching constant): PBS pH 7.40; for H^0 (enthalpy change) / S^0 (entropy change): van't Hoff, 300 and 310 K", "text": "There are two mechanisms of fluorescence quenching, dynamic and static, that can be distinguished based on the temperature dependency. Dynamic quenching is due to collisions between quencher and fluorophore and static quenching results from the formation of the ground state complex between the molecules. A modified Stern–Volmer equation (Equation (3)) was used to calculate Stern–Volmer quenching constants (KSV) and quenching rate constants (Kq) of the interactions between apo-transferrin and copper complexes and to determine the mechanism of fluorescence quenching. Fo/(Fo − F) = 1/fa + 1/(faKsv[Q])(3)\nIn the equation, Fo and F are the fluorescence intensities of protein in the absence and presence of the quencher in the concentration (Q), respectively; KSV is the Stern–Volmer quenching constant; and fa is the fraction of the fluorophore accessible to the quencher.\nKq, the quenching rate constant of the biomolecules, is expressed as:Kq = Ksv/τo(4) where τo is the fluorescence lifetime of protein without quencher. For apo-transferrin, the τo value is 2.5 ns.\nAssociation constants (Ka) and number of binding sites (n) were determined based on the Equation (5):log {(Fo − F)/F} = logKa + nlog[Q](5) where Fo and F are the fluorescence intensities in the absence and presence of the quencher in the concentration (Q), respectively, Ka is the binding constant, and n is the number of binding sites.\nIt is known that interactions between proteins and small molecules include hydrogen bonds, van der Waals, and electrostatic forces as well hydrophobic interactions. Based on thermodynamic parameters, we determined the type of interaction of copper complexes with apo-transferrin.\n∆G^0 = ∆H^0 − T∆S^0(7) where Ka is the bimolecular binding constant at the corresponding temperature (T); R is the gas constant; and ΔH^0, ΔS^0, and ΔG^0 are enthalpy, entropy, and free energy change, respectively.\nHigh purity apo-transferrin (≥ 98%, Sigma-Aldrich, Steinheim, North Rhine-Westphalia, Germany) was used without prior purification. The stock solutions of the complexes were prepared in demineralized water (1 and 2) or ethanol (3). The apo-Tf was dissolved in PBS (pH 7.40). The molar ratios of the final samples in PBS were (protein):(drug) = 1:0–1:16 in PBS with the protein concentration equal 2 μM. Samples were incubated at 300 and 310 K for 5 min. The apo-Tf concentration was determined using ε (280 nm) = 11.2 mM^−1 × cm^−1.\nEmission fluorescence spectra were recorded on Jasco 8200 spectrofluorimeter (Tokyo, Japan) in the range of 300–500 nm using 1.0 cm quartz cells. The λex was set to 280 nm and the excitation and emission slit widths were set to 5 nm. All fluorescence intensities were corrected (according to Equation (8)) for the inner filter and dilution effects and the corrected values were used to determine the quenching mechanism and binding data. […] Therefore, all spectra are shown as different spectra of (apo-Tf-copper complex)−(copper complex). Fcorr = exp(A280 + Aem/2) × Fexp(8)"}, "[3]": {"test_system": "HeLa (human cervix carcinoma)", "assay": "Cytotoxicity on HeLa cells, quantitative suspension test according to EN 14476", "type": "cell-based", "details": "observed 4 days, aqua media", "description": "as §1, §2"}, "[4]": {"test_system": "A549 (human lung carcinoma)", "assay": "Cytotoxicity on A549 cells, quantitative suspension test according to EN 14476", "type": "cell-based", "details": "observed 4 days, aqua media", "description": "as §1, §2"}}}
{"smiles": "Cc1ccc2ccc3ccc(C)nc3c2n1.F[P-](F)(F)(F)(F)F.O=P12CN3CN(CN(C3)C1)C2.O=[N+]([O-])[O-].[Cu+2]", "note": "[Complex 1, [Cu(NO3)(PTA=O)(dmphen)][PF6]]", "values": [{"measurement": "IC50", "setting": "[1]", "value": "570 ± 80", "unit": "nM"}, {"measurement": "G^0 (free energy change)", "setting": "[2]; 300 K", "value": -8.253, "unit": "kcal/mol"}, {"measurement": "n (number of binding sites)", "setting": "[2]; 300 K", "value": "1.26 ± 0.033"}, {"measurement": "Kq (quenching rate constant)", "setting": "[2]; 300K", "value": "1.00 ± 0.011 ·10^13 [M^−1s^−1]"}, {"measurement": "Ka (association constant)", "setting": "[2]; 300K", "value": "1.03 ± 0.16 ·10^6 [M^−1]"}, {"measurement": "Ksv (Stern-Volmer quenching constant)", "setting": "[2]; 300K", "value": "2.50 ± 0.011 ·10^4 [M^−1]"}, {"measurement": "G^0 (free energy change)", "setting": "[2]; 310 K", "value": -8.406, "unit": "kcal/mol"}, {"measurement": "n (number of binding sites)", "setting": "[2]; 310 K", "value": "1.24 ± 0.036"}, {"measurement": "Kq (quenching rate constant)", "setting": "[2]; 310K", "value": "1.17 ± 0.029 ·10^13 [M^−1s^−1]"}, {"measurement": "Ka (association constant)", "setting": "[2]; 310K", "value": "0.843 ± 0.17 ·10^6 [M^−1]"}, {"measurement": "Ksv (Stern-Volmer quenching constant)", "setting": "[2]; 310K", "value": "2.92 ± 0.029 ·10^4 [M^−1]"}, {"measurement": "H^0 (enthalpy change)", "setting": "[2]", "value": -3.664, "unit": "kcal/mol"}, {"measurement": "S^0 (entropy change)", "setting": "[2]", "value": 63.99, "unit": "J mol^−1 K^−1"}, {"measurement": "IC50", "setting": "[3]", "value": "1120 ± 160", "unit": "nM"}, {"measurement": "IC50", "setting": "[4]", "value": "290 ± 10", "unit": "nM"}]}
{"smiles": "CC#N.Cc1ccc2ccc3ccc(C)nc3c2n1.O=[N+]([O-])[O-].O=[N+]([O-])[O-].[Cu+2]", "note": "[Complex 3, [Cu(NO3)2(dmphen)]∙MeCN]", "values": [{"measurement": "IC50", "setting": "[1]", "value": "1720 ± 250", "unit": "nM"}, {"measurement": "G^0 (free energy change)", "setting": "[2]; 300 K", "value": -9.563, "unit": "kcal/mol"}, {"measurement": "Ksv values", "setting": "[2]; 300 K", "value": 53700, "unit": "M⁻¹"}, {"measurement": "n (number of binding sites)", "setting": "[2]; 300 K", "value": "1.40 ± 0.076"}, {"measurement": "Ka (association constant)", "setting": "[2]; 300K", "value": "9.26 ± 0.37 ·10^6 [M^−1]"}, {"measurement": "Ksv (Stern-Volmer quenching constant)", "setting": "[2]; 300K", "value": "5.37 ± 0.023 ·10^4 [M^−1]"}, {"measurement": "G^0 (free energy change)", "setting": "[2]; 310 K", "value": -9.888, "unit": "kcal/mol"}, {"measurement": "Ksv values", "setting": "[2]; 310 K", "value": 35100, "unit": "M⁻¹"}, {"measurement": "n (number of binding sites)", "setting": "[2]; 310 K", "value": "1.42 ± 0.068"}, {"measurement": "Kq (quenching rate constant)", "setting": "[2]; 310K", "value": "1.40 ± 0.062 ·10^13 [M^−1s^−1]"}, {"measurement": "Ka (association constant)", "setting": "[2]; 310K", "value": "9.38 ± 0.33 ·10^6 [M^−1]"}, {"measurement": "Ksv (Stern-Volmer quenching constant)", "setting": "[2]; 310K", "value": "3.51 ± 0.062 ·10^4 [M^−1]"}, {"measurement": "H^0 (enthalpy change)", "setting": "[2]", "value": 230, "unit": "kcal/mol"}, {"measurement": "S^0 (entropy change)", "setting": "[2]", "value": 136.57, "unit": "J mol^−1 K^−1"}, {"measurement": "IC50", "setting": "[3]", "value": "430 ± 60", "unit": "nM"}, {"measurement": "IC50", "setting": "[4]", "value": "430 ± 60", "unit": "nM"}]}
{"smiles": "Cc1ccc2ccc3ccc(C)nc3c2n1.Cc1ccc2ccc3ccc(C)nc3c2n1.F[P-](F)(F)(F)(F)F.[Cl-].[Cu+2]", "note": "[Complex 2, [Cu(Cl)(dmphen)2][PF6]]", "values": [{"measurement": "IC50", "setting": "[1]", "value": "1130 ± 170", "unit": "nM"}, {"measurement": "G^0 (free energy change)", "setting": "[2]; 300 K", "value": -9.118, "unit": "kcal/mol"}, {"measurement": "n (number of binding sites)", "setting": "[2]; 300 K", "value": "1.35 ± 0.050"}, {"measurement": "Kq (quenching rate constant)", "setting": "[2]; 300K", "value": "1.61 ± 0.050 ·10^13 [M^−1s^−1]"}, {"measurement": "Ka (association constant)", "setting": "[2]; 300K", "value": "4.38 ± 0.24 ·10^6 [M^−1]"}, {"measurement": "Ksv (Stern-Volmer quenching constant)", "setting": "[2]; 300K", "value": "4.03 ± 0.050 ·10^4 [M^−1]"}, {"measurement": "G^0 (free energy change)", "setting": "[2]; 310 K", "value": -9.19, "unit": "kcal/mol"}, {"measurement": "n (number of binding sites)", "setting": "[2]; 310 K", "value": "1.31 ± 0.066"}, {"measurement": "Kq (quenching rate constant)", "setting": "[2]; 310K", "value": "2.27 ± 0.024 ·10^13 [M^−1s^−1]"}, {"measurement": "Ka (association constant)", "setting": "[2]; 310K", "value": "3.04 ± 0.32 ·10^6 [M^−1]"}, {"measurement": "Ksv (Stern-Volmer quenching constant)", "setting": "[2]; 310K", "value": "5.69 ± 0.024 ·10^4 [M^−1]"}, {"measurement": "H^0 (enthalpy change)", "setting": "[2]", "value": -6.75, "unit": "kcal/mol"}, {"measurement": "S^0 (entropy change)", "setting": "[2]", "value": 33.02, "unit": "J mol^−1 K^−1"}, {"measurement": "IC50", "setting": "[3]", "value": "1130 ± 170", "unit": "nM"}, {"measurement": "IC50", "setting": "[4]", "value": "280 ± 40", "unit": "nM"}]}
